Measurements: ChEMBL document CHEMBL5512645, “A novel antimicrobial peptide with broad-spectrum and exceptional stability derived from the natural peptide Brevicidine” (Eur J Med Chem, 2024)
≈ marks a conversion by molar mass, not a printed value. Calls of active or inactive are those of the source. No cut-off for these calls is given here. Bridge positions count the residues as written; N and C are the ends. Square brackets hold non-standard residues; d marks the D form. Peptide text beside a SMILES is read from it. * marks the point of attachment. ξ: configuration not given here. Hexanoyl(4ξ-Me) = CCC(C)CCC(=O)*; dOrn = NCCC[C@@H](N)C(=O)O; Orn = NCCC[C@H](N)C(=O)O

Experiments:
Staphylococcus aureus [1] = test: In vivo antibacterial activity against Staphylococcus aureus ATCC 25923 infected in BALB/c mouse model assessed as amelioration of pathological changes in lung at 5 to 10 mg/kg, ip measured after 7 hrs by H and E staining based analysis; type: functional, organism-based; settings: dose 5-10 mg/kg
Pseudomonas aeruginosa [2] = test: Antibacterial activity against Pseudomonas aeruginosa ATCC 27853 pretreated with 10% mouse serum followed by compound addition and measured after 1 hr by broth microdilution method (reference value: 2 microM); type: functional
Staphylococcus aureus [3] = test: Antibacterial activity against Staphylococcus aureus ATCC 25923 at sub-MIC measured after 20 days in presence of rifampicin; type: functional, organism-based; settings: time 20.0 day
Escherichia coli = test: Antibacterial activity against Escherichia coli ATCC 25922 incubated for 18 to 24 hrs by broth microdilution method; type: functional; settings: time 18-24 hrs
Pseudomonas aeruginosa [4] = test: Antibacterial activity against Pseudomonas aeruginosa ATCC 27853 at sub-MIC measured after 20 days; type: functional, organism-based; settings: time 20.0 day
Pseudomonas aeruginosa [5] = test: Antibacterial activity against Pseudomonas aeruginosa ATCC 27853 pretreated with 2.5% mouse serum followed by compound addition and measured after 6 hrs by broth microdilution method (reference value: 2 microM); type: functional
Klebsiella pneumoniae = test: Antibacterial activity against Klebsiella pneumoniae ATCC 700603 incubated for 18 to 24 hrs by broth microdilution method; type: functional; settings: time 18-24 hrs
[6] = test system: Staphylococcus epidermidis; test: Antibacterial activity against Staphylococcus epidermidis ATCC 12228 incubated for 18 to 24 hrs by broth microdilution method; type: functional; settings: time 18-24 hrs
Pseudomonas aeruginosa [7] = test: Antibacterial activity against Pseudomonas aeruginosa ATCC 27853 pretreated with Zncl2 followed by compound addition and measured after 2 hrs by broth microdilution method (reference value: 2 microM); type: functional
Enterococcus faecalis = test: Antibacterial activity against Enterococcus faecalis ATCC 29212 incubated for 18 to 24 hrs by broth microdilution method; type: functional; settings: time 18-24 hrs
Pseudomonas aeruginosa [8] = test: Antibacterial activity against Pseudomonas aeruginosa ATCC 27853 assessed as fold increase in MIC pretreated with NaCl followed by compound addition and measured after 2 hrs by broth microdilution method; type: functional
Pseudomonas aeruginosa [9] = test: Antibacterial activity against Pseudomonas aeruginosa ATCC 27853 incubated for 18 to 24 hrs by broth microdilution method; type: functional; settings: time 18-24 hrs
Pseudomonas aeruginosa [10] = test: Antibacterial activity against Pseudomonas aeruginosa ATCC 27853 at sub-MIC measured after 20 days in presence of gentamicin; type: functional, organism-based; settings: time 20.0 day
Pseudomonas aeruginosa [11] = test: Antibacterial activity against Pseudomonas aeruginosa ATCC 27853 pretreated with 10% mouse serum followed by compound addition and measured after 6 hrs by broth microdilution method (reference value: 2 microM); type: functional
Pseudomonas aeruginosa [12] = test: Antibacterial activity against Pseudomonas aeruginosa ATCC 27853 pretreated with 5% mouse serum followed by compound addition and measured after 1 hr by broth microdilution method (reference value: 2 microM); type: functional
Bacillus subtilis = test: Antibacterial activity against Bacillus subtilis ATCC 23857 incubated for 18 to 24 hrs by broth microdilution method; type: functional; settings: time 18-24 hrs
Pseudomonas aeruginosa [13] = test: Antibacterial activity against Pseudomonas aeruginosa ATCC 27853 assessed as fold increase in MIC pretreated with MgCl2 followed by compound addition and measured after 2 hrs by broth microdilution method; type: functional
Pseudomonas aeruginosa [14] = test: Antibacterial activity against Pseudomonas aeruginosa ATCC 27853 pretreated with KCl followed by compound addition and measured after 2 hrs by broth microdilution method (reference value: 2 microM); type: functional
Pseudomonas aeruginosa [15] = test: Antibacterial activity against Pseudomonas aeruginosa ATCC 27853 pretreated with 2.5% mouse serum followed by compound addition and measured after 1 hr by broth microdilution method (reference value: 2 microM); type: functional
Pseudomonas aeruginosa [16] = test: Antimicrobial activity against Pseudomonas aeruginosa ATCC 27853 assessed as reduction in microbial growth at 2 times MIC measured for 18 hrs in presence of 256 microg/ml LPS; type: functional, organism-based
Pseudomonas aeruginosa [17] = test: Antibacterial activity against Pseudomonas aeruginosa ATCC 27853 pretreated with 20% mouse serum followed by compound addition and measured after 1 hr by broth microdilution method (reference value: 2 microM); type: functional
Pseudomonas aeruginosa [18] = test: Antibacterial activity against Pseudomonas aeruginosa ATCC 27853 at sub-MIC measured after 20 days in presence of rifampicin; type: functional, organism-based; settings: time 20.0 day
Staphylococcus aureus [19] = test: Antibacterial activity against Staphylococcus aureus ATCC 25923 incubated for 18 to 24 hrs by broth microdilution method; type: functional; settings: time 18-24 hrs
Staphylococcus aureus [20] = test: Antibacterial activity against Staphylococcus aureus ATCC 25923 at sub-MIC measured after 20 days; type: functional, organism-based; settings: time 20.0 day
Pseudomonas aeruginosa [21] = test: Antibacterial activity against Pseudomonas aeruginosa ATCC 27853 pretreated with FeCl3 followed by compound addition and measured after 2 hrs by broth microdilution method (reference value: 2 microM); type: functional
Pseudomonas aeruginosa [22] = test: Antibacterial activity against Pseudomonas aeruginosa ATCC 27853 pretreated with 5% mouse serum followed by compound addition and measured after 6 hrs by broth microdilution method (reference value: 2 microM); type: functional
Pseudomonas aeruginosa [23] = test: Antibacterial activity against Pseudomonas aeruginosa ATCC 27853 pretreated with Mgcl2 followed by compound addition and measured after 2 hrs by broth microdilution method (reference value: 2 microM); type: functional
Pseudomonas aeruginosa [24] = test: Antibacterial activity against Pseudomonas aeruginosa ATCC 27853 pretreated with 20% mouse serum followed by compound addition and measured after 6 hrs by broth microdilution method (reference value: 2 microM); type: functional
Staphylococcus aureus [25] = test: In vivo antibacterial activity against Staphylococcus aureus ATCC 25923 infected in BALB/c mouse model assessed as reduction in bacterial count in lung at 10 mg/kg, ip preadministered with compound for 1 hr followed by bacterial infection and measured after 6 hrs […]; type: functional, organism-based; settings: time 7.0 hrs
Acinetobacter baumannii = test: Antibacterial activity against Acinetobacter baumannii ATCC 19606 incubated for 18 to 24 hrs by broth microdilution method; type: functional; settings: time 18-24 hrs
[26] = Retention time of the compound in mouse serum by RP-HPLC analysis; type: ADME, cell-free
Pseudomonas aeruginosa [27] = test: Antibiofilm activity against Pseudomonas aeruginosa ATCC 27853 at 1/2 to 4 times MIC measured after 24 hrs by crystal violet staining based analysis; type: functional, organism-based
Pseudomonas aeruginosa [28] = test: Antibacterial activity against Pseudomonas aeruginosa ATCC 27853 assessed as reduction in survival bacterial growth in presence of chymotrypsin measured after 8 hrs by absorbance based analysis; type: functional, organism-based
Pseudomonas aeruginosa [29] = test: Antibacterial activity against Pseudomonas aeruginosa ATCC 27853 pretreated with Na-cl followed by compound addition and measured after 2 hrs by broth microdilution method (reference value: 2 microM); type: functional
Staphylococcus aureus [30] = test: Antibacterial activity against Staphylococcus aureus ATCC 25923 at sub-MIC measured after 20 days in presence of gentamicin; type: functional, organism-based; settings: time 20.0 day
Erythrocyte = test: Hemolytic activity in mouse red blood cell assessed as hemolysis incubated for 1 hr; type: toxicity, cell-based
Staphylococcus aureus [31] = test: Antibiofilm activity against Staphylococcus aureus ATCC 25923 at 1/2 to 4 times MIC measured after 24 hrs by crystal violet staining based analysis; type: functional, organism-based
Pseudomonas aeruginosa [32] = test: Antibacterial activity against Pseudomonas aeruginosa ATCC 27853 assessed as fold increase in MIC pretreated with KCl followed by compound addition and measured after 2 hrs by broth microdilution method; type: functional
[33] = Cytotoxicity against human HK-2 cells measured after 24 hrs MTT assay; type: toxicity, cell-based
Pseudomonas aeruginosa [34] = test: Induction of morphological changes in Pseudomonas aeruginosa ATCC 27853 assessed as pore formation on bacterial surface at 2 times MIC measured after 0.5 hrs by SEM based analysis; type: functional, organism-based

| Molecule | MIC (Pseudomonas aeruginosa [2]) [µM] | Activity (Staphylococcus aureus [3]) | MIC (Escherichia coli) [µM] | MIC (Pseudomonas aeruginosa [5]) [µM] | MIC (Klebsiella pneumoniae) [µM] | MIC [6] [µM] | MIC (Pseudomonas aeruginosa [7]) [µM] | MIC (Enterococcus faecalis) [µM] | MIC (Pseudomonas aeruginosa [9]) [µM] | Activity (Pseudomonas aeruginosa [10]) | MIC (Pseudomonas aeruginosa [11]) [µM] | MIC (Pseudomonas aeruginosa [12]) [µM] | MIC (Bacillus subtilis) [µM] | MIC (Pseudomonas aeruginosa [14]) [µM] | MIC (Pseudomonas aeruginosa [15]) [µM] | MIC (Pseudomonas aeruginosa [17]) [µM] | Activity (Pseudomonas aeruginosa [18]) | MIC (Staphylococcus aureus [19]) [µM] | MIC (Pseudomonas aeruginosa [21]) [µM] | MIC (Pseudomonas aeruginosa [22]) [µM] | further results |
| --- | --- | --- | --- | --- | --- | --- | --- | --- | --- | --- | --- | --- | --- | --- | --- | --- | --- | --- | --- | --- | --- |
| CCCCCCCCCC(=O)N[C@H](CCCN)C(=O)N[C@H](Cc1ccc(O)cc1)C(=O)N[C@H](Cc1c[nH]c2ccccc12)C(=O)N[C@H](CCCN)C(=O)N[C@@H](CCCN)C(=O)NCC(=O)N[C@H](CCCN)C(=O)N[C@@H](Cc1c[nH]c2ccccc12)C(=O)N[C@H](C(=O)N[C@H](C(=O)NCC(=O)N[C@@H](CO)C(=O)O)[C@@H](C)CC)[C@@H](C)O | 2 (≈ 3.16 µg/mL) | Active | 4 (≈ 6.32 µg/mL) | 2 (≈ 3.16 µg/mL) | 4 (≈ 6.32 µg/mL) | 4 (≈ 6.32 µg/mL) | 2 (≈ 3.16 µg/mL) | 16 (≈ 25.3 µg/mL) | 2 (≈ 3.16 µg/mL) | Active | 4 (≈ 6.32 µg/mL) | 2 (≈ 3.16 µg/mL) | 2 (≈ 3.16 µg/mL) | 2 (≈ 3.16 µg/mL) | 2 (≈ 3.16 µg/mL) | 4 (≈ 6.32 µg/mL) | Active | 8 (≈ 12.6 µg/mL) | < 1 | 2 (≈ 3.16 µg/mL) | Activity (Staphylococcus aureus [1]): Active; Activity (Pseudomonas aeruginosa [4]): Active; fold change (FC) (Pseudomonas aeruginosa [8]): 8; fold change (FC) (Pseudomonas aeruginosa [13]): 8; Activity (Pseudomonas aeruginosa [16]): inactive; Activity (Staphylococcus aureus [20]): Active; MIC (Pseudomonas aeruginosa [23]): 2 µM (≈ 3.16 µg/mL); MIC (Pseudomonas aeruginosa [24]): 8 µM (≈ 12.6 µg/mL); Activity (Staphylococcus aureus [25]): Active; MIC (Acinetobacter baumannii): 4 µM (≈ 6.32 µg/mL); Retention_time [26]: 15.312 min; Activity (Pseudomonas aeruginosa [27]): Active; Activity (Pseudomonas aeruginosa [28]): Active; MIC (Pseudomonas aeruginosa [29]): 2 µM (≈ 3.16 µg/mL); Activity (Staphylococcus aureus [30]): Active; MHC (Erythrocyte): 128 µM; Activity (Staphylococcus aureus [31]): Active; fold change (FC) (Pseudomonas aeruginosa [32]): 8; IC50 at 24 h [33]: 21.1 µM |
| CCC(C)CCC(=O)N[C@H](CC(N)=O)C(=O)N[C@H](Cc1ccc(O)cc1)C(=O)N[C@H](Cc1c[nH]c2ccccc12)C(=O)N[C@H](CCCN)C(=O)N[C@@H](CCCN)C(=O)NCC(=O)N[C@H](CCCN)C(=O)N[C@@H](Cc1c[nH]c2ccccc12)C(=O)N[C@@H]1C(=O)N[C@@H]([C@@H](C)CC)C(=O)NCC(=O)N[C@@H](CO)C(=O)O[C@@H]1C (some centres not stated) ({Hexanoyl(4ξ-Me)}-[dN][dY][dW][dOrn][Orn]G[dOrn]WTIGS; ester 9-C) | 4 (≈ 6.08 µg/mL) | Active | 2 (≈ 3.04 µg/mL) | 8 (≈ 12.2 µg/mL) | 2 (≈ 3.04 µg/mL) | 32 (≈ 48.6 µg/mL) | 4 (≈ 6.08 µg/mL) | 64 (≈ 97.3 µg/mL) | 2 (≈ 3.04 µg/mL) | Active | 8 (≈ 12.2 µg/mL) | 2 (≈ 3.04 µg/mL) | 8 (≈ 12.2 µg/mL) | 8 (≈ 12.2 µg/mL) | 2 (≈ 3.04 µg/mL) | 4 (≈ 6.08 µg/mL) | Active | 64 (≈ 97.3 µg/mL) | 4 (≈ 6.08 µg/mL) | 8 (≈ 12.2 µg/mL) | Activity (Pseudomonas aeruginosa [34]): Active; Activity (Pseudomonas aeruginosa [4]): Active; fold change (FC) (Pseudomonas aeruginosa [8]): 2; fold change (FC) (Pseudomonas aeruginosa [13]): 4; Activity (Staphylococcus aureus [20]): Active; MIC (Pseudomonas aeruginosa [23]): 8 µM (≈ 12.2 µg/mL); MIC (Pseudomonas aeruginosa [24]): 16 µM (≈ 24.3 µg/mL); MIC (Acinetobacter baumannii): 8 µM (≈ 12.2 µg/mL); Retention_time [26]: 14.82 min; Activity (Pseudomonas aeruginosa [27]): Active; Activity (Pseudomonas aeruginosa [28]): Active; MIC (Pseudomonas aeruginosa [29]): 4 µM (≈ 6.08 µg/mL); Activity (Staphylococcus aureus [30]): Active; MHC (Erythrocyte): 128 µM; Activity (Staphylococcus aureus [31]): Active; fold change (FC) (Pseudomonas aeruginosa [32]): 4; IC50 at 24 h [33]: 36.5 µM |
| POLYMYXIN B | 2 | Active | 2 | 2 | 4 | 32 | < 1 | 128 | 2 | Active | 4 | 2 | 8 | < 1 | 2 | 2 | Active | 16 | < 1 | 2 | Activity (Staphylococcus aureus [1]): Active; Activity (Pseudomonas aeruginosa [34]): Active; Activity (Pseudomonas aeruginosa [16]): inactive; MIC (Pseudomonas aeruginosa [23]): 2 µM; MIC (Pseudomonas aeruginosa [24]): 4 µM; Activity (Staphylococcus aureus [25]): Active; MIC (Acinetobacter baumannii): 1 µM; Activity (Pseudomonas aeruginosa [27]): Active; MIC (Pseudomonas aeruginosa [29]): < 1 µM; Activity (Staphylococcus aureus [30]): Active; Activity (Staphylococcus aureus [31]): Active |
